Measured values published in patent US20190337932A1, “PROCESS FOR PREPARATION OF DACLATASVIR AND SALTS” (Gienmark Pharmaceuticals Limited, priority 2016, published 2019).
Structures can show the parent of a compound that is named as a salt.

How the values were obtained:
Type in all cases: physicochemical
[1] = Hygroscopicity at 25° C/60% and 40° C/75% relative humidity (description, water content by Karl Fischer); conditions: for hygroscopicity: conclusion of the study, Tables 4 and 5
Description: The study was carried out by subjecting 4 g of daclatasvir dihydrochloride hydrate of the present invention and literature Form N-2 of daclatasvir dihydrochloride to 25′C/60% relative humidity and 40′C/75% relative humidity. About 100 mg of sample was withdrawn each time at timely interval of 4, 12, 24 and 48 hours from the conditions is and tested for description and water content by Karl Fischer.

[2] = Transformation kinetics: slurrying in water at 25 to 30° C. for 24 hours, XRPD
Description: The study was carried out by slurrying 1 g of daclatasvir dihydrochloride hydrate of the present invention and literature Form N-2 of daclatasvir dihydrochloride, in water at 25 to 30° C. for 24 hours. The solid samples were then characterized by XRPD.

[3] = Solid state stability at accelerated stress conditions (40° C./75% relative humidity); conditions: 40° C./75% RH
Description: In one embodiment the present invention provides daclatasvir dihydrochloride hydrate, which has enhanced stability to heat and humidity. According to the present invention, the obtained daclatasvir dihydrochloride hydrate is subjected to accelerated stability at 40° C. and relative humidity (RH) 75%.
The solid state stability of the daclatasvir dihydrochloride hydrate was determined by storing approximately 3.0 g of the sample at accelerated stress conditions (40° C./75% relative humidity) for 15 days, 1 month, 3 months, 6 months. The samples were tested by XRPD and HPLC for final purity and degradation products.

[4] = Physical stability on storing/drying at 50° C., 70° C., 100° C. (XRPD, Karl-Fisher)
Description: The physical stability of the daclatasvir dihydrochloride hydrate, of the present invention was determined by storing approximately 3.0 g of the sample a) at 50° C. b) at 70° C. c) at 100° C. The samples were tested by XRPD and Karl-Fisher titrator after 15 hours and 72 hours.

[5] = Photostability, light of 4000 lux at 25° C. for 2 weeks
Description: This study was carried out in a photostability testing chamber by subjecting daclatasvir dihydrochloride hydrate of the present invention to irradiation with light of 4000 lux at 25° C. for 2 weeks and the samples were tested for XRPD and stability.

[6] = Dynamic vapor system sorption/desorption isotherms; conditions: 25° C., relative humidity of 40% to 90%
Description: Sorption/desorption isotherms were measured using the Dynamic vapor System. Measurement was carried out at 25° C. and Relative humidity of 40% to 90%.

[7] = listed as literature form N-2, dihydrochloride

For `COC(=O)N[C@H](C(=O)N1CCC[C@H]1c1ncc(-c2ccc(-c3ccc(-c4cnc([C@@H]5CCCN5C(=O)[C@@H](NC(=O)OC)C(C)C)[nH]4)cc3)cc2)[nH]1)C(C)C` [daclatasvir dihydrochloride, reference compound], the “Moisture content by KF” value ([1]; 25° C./60% relative humidity, 4 hours, dihydrochloride) was 2.45%, the “Moisture content by KF” value ([1]; 25° C./60% relative humidity, 12 hours, dihydrochloride) was 2.47% and the “Moisture content by KF” value ([1]; 25° C./60% relative humidity, 24 hours, dihydrochloride) was 2.44%. For the same compound, the “Moisture content by KF” value ([1]; 25° C./60% relative humidity, 48 hours, dihydrochloride) was 2.47%, the “Moisture content by KF” value ([1]; 25° C./60% relative humidity, Initial, dihydrochloride) was 2.12% and the “Moisture content by KF” value ([1]; 40° C./75% relative humidity, 4 hours, dihydrochloride) was 2.52%. The “Moisture content by KF” value ([1]; 40° C./75% relative humidity, 12 hours, dihydrochloride) was 2.54%, the “Moisture content by KF” value ([1]; 40° C./75% relative humidity, 24 hours, dihydrochloride) was 2.65% and the “Moisture content by KF” value ([1]; 40° C./75% relative humidity, 48 hours, dihydrochloride) was 2.77%. The “Moisture content by KF” value ([1]; 40° C./75% relative humidity, Initial, dihydrochloride) was 2.12%, the hygroscopicity [1, 7] was “more hygroscopic than the form of the present invention” and the “Result (form by XRPD)” value ([2]; listed as Form-N2, dihydrochloride) was “Converted to crystalline daclatasvir”. For the same compound, the “Result (form by XRPD)” value [2, 7] was “did not retain its form and was converted to the daclatasvir dihydrochloride hydrate of the present invention”.
For `COC(=O)N[C@H](C(=O)N1CCC[C@H]1c1ncc(-c2ccc(-c3ccc(-c4cnc([C@@H]5CCCN5C(=O)[C@@H](NC(=O)OC)C(C)C)[nH]4)cc3)cc2)[nH]1)C(C)C` [daclatasvir dihydrochloride hydrate], the Description ([1]; 25° C./60% relative humidity, 4 hours) was “Creamish”, the “Moisture content by KF” value ([1]; 25° C./60% relative humidity, 4 hours, dihydrochloride hydrate) was 8.77% and the Description ([1]; 25° C./60% relative humidity, 12 hours) was “Creamish”. The “Moisture content by KF” value ([1]; 25° C./60% relative humidity, 12 hours, dihydrochloride hydrate) was 8.86%, the Description ([1]; 25° C./60% relative humidity, 24 hours) was “Creamish” and the “Moisture content by KF” value ([1]; 25° C./60% relative humidity, 24 hours, dihydrochloride hydrate) was 8.89%. The Description ([1]; 25° C./60% relative humidity, 48 hours) was “Creamish”, the “Moisture content by KF” value ([1]; 25° C./60% relative humidity, 48 hours, dihydrochloride hydrate) was 8.91% and the Description ([1]; 25° C./60% relative humidity, Initial) was “Creamish”. For the same compound, the “Moisture content by KF” value ([1]; 25° C./60% relative humidity, Initial, dihydrochloride hydrate) was 8.76%, the Description ([1]; 40° C./75% relative humidity, 4 hours) was “Creamish” and the “Moisture content by KF” value ([1]; 40° C./75% relative humidity, 4 hours, dihydrochloride hydrate) was 8.76%. The Description ([1]; 40° C./75% relative humidity, 12 hours) was “Creamish”, the “Moisture content by KF” value ([1]; 40° C./75% relative humidity, 12 hours, dihydrochloride hydrate) was 8.81% and the Description ([1]; 40° C./75% relative humidity, 24 hours) was “Creamish”. For the same compound, the “Moisture content by KF” value ([1]; 40° C./75% relative humidity, 24 hours, dihydrochloride hydrate) was 8.86%, the Description ([1]; 40° C./75% relative humidity, 48 hours) was “Creamish” and the “Moisture content by KF” value ([1]; 40° C./75% relative humidity, 48 hours, dihydrochloride hydrate) was 8.92%. The Description ([1]; 40° C./75% relative humidity, Initial) was “Creamish”, the “Moisture content by KF” value ([1]; 40° C./75% relative humidity, Initial, dihydrochloride hydrate) was 8.76% and the hygroscopicity ([1]; dihydrochloride hydrate) was “non-hygroscopic”. For the same compound, the “HPLC Purity (%)” value ([3]; after 1 month) was 99.9%, the XRPD ([3]; after 1 month) was “Same as initial” and the “HPLC Purity (%)” value ([3]; after 3 months) was 99.89%. The XRPD ([3]; after 3 months) was “Same as initial”, the “HPLC Purity (%)” value ([3]; after 6 months) was 99.88% and the XRPD ([3]; after 6 months) was “Same as initial”. The “HPLC Purity (%)” value ([3]; after 15 days) was 99.9%, the XRPD ([3]; after 15 days) was “Same as initial” and the “chemical and physical stability” value ([3]; accelerated stability) was “chemically and physically very stable”. For the same compound, the “degradation in HPLC” value ([3]; accelerated stability) was “no degradation”, the “increase in the moisture content” value ([3]; accelerated stability) was “no substantial increase” and the XRPD pattern ([3]; accelerated stability, dihydrochloride hydrate) was “remains the same as initial”. The KF ([4]; Drying at 50° C. for 15 hours) was 8.03%, the KF ([4]; Drying at 50° C. for 72 hours) was 8.12% and the “Key XRPD peaks after drying” value ([4]; Drying at 50° C., 70° C. (15 and 72 hours) and 100° C. (15 hours), one merged cell) was “There was no change in XRPD”. It also gave a KF ([4]; Drying at 70° C. for 15 hours) of 8.03%, a KF ([4]; Drying at 70° C. for 72 hours) of 8.02% and a KF ([4]; Drying at 100° C. for 15 hours) of 8%. For the same compound, the KF ([4]; Initial form) was 7.99%, the change in form ([4]; drying and humid conditions) was “no change in form” and the XRPD pattern [5] was “remains same as initial”. For the same compound, the “degradation in HPLC” value [5] was “no degradation”, the “Result (form by XRPD)” value ([2]; dihydrochloride hydrate) was “No discernible form conversion or dissociation” and the Adsorption desorption profile [6] was “reversible”.
